Data taken from publication PMC8122671, “New Succinimides with Potent Anticancer Activity: Synthesis, Activation of Stress Signaling Pathways and Characterization of Apoptosis in Leukemia and Cervical Cancer Cells” (International Journal of Molecular Sciences, 2021).
“Also recorded” adds a separate entry of the source. Where two headings read alike, the source gives them in different places.

Columns and labels:
[1] = test system: plasmid DNA (pcDNA3.1HisC); test: DNA-cleavage protection assay (BamHI digestion of plasmid DNA); format: biochemical; conditions: 100 µM, overnight 37 °C, then BamHI 3 h
Experimental: A DNA-cleavage protection assay has been successfully used for the identification of compounds that bind DNA either covalently or noncovalently. Such binding may result in DNA being less susceptible to enzymatic cleavage. […] It was also reported that naphtalenoimides or indolomaleimides intercalate into DNA [13, 14]. […] In CD studies, a synthetic 23-nt duplex DNA or bovine thymus DNA was incubated with compound Ic or daunorubicin (reference compound). […] Using a DNA-cleavage protection assay, we investigated whether selected compounds 2c, 2d, and 2f and 3c, 3d, and 3f interact with a plasmid DNA, resulting in increased resistance to endonucleolytic cleavage. Plasmid DNA (pcDNA3.1HisC) containing a single BamHI cleavage site was incubated with test compounds and subsequently digested with BamH1 restriction endonuclease. Daunorubicin (a strong DNA-intercalating agent) was used as a reference compound. Non-digested plasmid DNA existed predominantly in the circular form; however, the superhelical and linear forms were also detected (Figure 5, lane 1). […] This observation can be explained by the higher lipophilicity of 3c, 3d, and 3f compared to 2c, 2d, and 2f, which may facilitate their more efficient binding to DNA.
First, 0.5 μg of plasmid DNA (pcDNAHisC, total length 5.5 kbp) containing a unique BamHI restriction site was dissolved in a 1× BamHI reaction buffer and incubated overnight at 37 °C with the test compounds or daunorubicin. Daunorubicin, a strong intercalating agent, was used as a positive control. The concentration of the test compounds and daunorubicin samples was 100 µM. In the next step, the reaction mixtures were digested with BamHI restriction endonuclease (2 U/μL) for 3 h at 37 °C. The total reaction volume was 10 μL. Products of the reaction were subjected to the 1% agarose gel electrophoresis in TBE buffer. The gel was stained with ethidium bromide, and DNA fragments were visualized under a UV lamp (GBox, Syngene).

[2] = test system: caspase 3/7 in K562 cells; test: Caspase-3/7 activity assay (Apo-ONE) in K562 cells; format: cell-based, human; conditions: K562, 18 h, test compound at 5xIC50, staurosporine 1 μM; vs 1% DMSO
Experimental: After incubation for 18 h, K562 cells were lysed and the activity of caspase 3/7 was measured using a profluorescent peptide substrate.
First, 20 × 10^3 K562 cells were seeded on each well of a 96-well plate in RPMI 1640 medium supplemented with 10% fetal calf serum and antibiotics. Cells were grown for 24 h at 37 °C and 5% CO2. Test dicarboximides were dissolved in DMSO and added to cell culture to the final concentration of 5 × IC50. […] Cells were exposed to test compounds for 18 h at 37 °C and 5% CO2. Subsequently, the activity of caspase 3 and 7 was measured by Apo-ONE® Homogeneous Caspase-3/7 Assay (Promega, Madison, WI, USA) according to the manufacturer’s instructions. Briefly, the cells were lysed and incubated for 1.5 h with a profluorescent substrate for caspase 3 and 7. Next, the fluorescence was read at an excitation wavelength of 485 nm and emission of 520 nm with a FLUOStar Omega microplate reader (BMG-Labtech, Offenburg, Germany).

[3] = test system: HeLa (human cervix carcinoma) cells; test: MTT cytotoxicity assay, HeLa; format: cell-based; conditions: 48 h incubation, average (SD) of three experiments, read-out: IC50 HeLa
Experimental: (§1) The cytotoxicity of new derivatives of dicarboximides was tested in HeLa (cervix carcinoma cell line), K562 (myelogenous leukemia cell line), MOLT-4 (Human T-Lymphoid Cell Line), and HUVEC (normal endothelial) cells. First, the viability of cells was determined after 48 h incubation with the screened compounds used at the concentration of 100 μM (data not shown). […] Cells exposed to 1% DMSO (as vehicle) served as the control with 100% survival.
(§2) Human umbilical vein endothelial cells (Life Technologies, Carlsbad, CA, USA) were cultured (according to the manufacturer’s instructions) in Medium 200 containing low serum growth supplement; 1 × 10^4 cells were seeded on each well on a 96-well plate (Nunc, Roskilde, Denmark). The HeLa (human cervix carcinoma), K562, and MOLT-4 (leukemia) cells were cultured in RPMI 1640 medium supplemented with antibiotics and 10% fetal calf serum in a 5% CO2–95% air atmosphere; 7 × 10^3 cells were seeded on each well on a 96-well plate (Nunc). Twenty-four hours later, cells were exposed to the test compounds for additional 48 hours. Stock solutions of test compounds were freshly prepared in DMSO. The final concentrations of the compounds tested in the cell cultures were 2 × 10^−1, 1 × 10^−1, 5 × 10^−2, 1 × 10^−2, 1 × 10^−3, and 1 × 10^−4 mM. The concentration of DMSO in the cell culture medium was 1%. The values of IC50 (the concentration of test compound required to reduce the cell survival fraction to 50% of the control) were calculated from dose–response curves and used as a measure of cellular sensitivity to a given treatment. The cytotoxicity of all compounds was determined by the MTT [3-(4,5-dimethylthiazol-2-yl)-2,5-diphenyltetrazolium bromide; Sigma, St. Louis, MO, USA] assay. Briefly, after 24 or 48 h of incubation with drugs, the cells were treated with the MTT reagent, and incubation was continued for 2 h. MTT-formazan crystals were dissolved in 20% SDS and 50% DMF at pH 4.7, and absorbance was read at 570 and 650 nm on a microplate reader FLUOstar Omega (BMG Labtech, Offenburg, Germany). As a control (100% viability), we used cells grown in the presence of the vehicle (1% DMSO) only.

[4] = test system: HUVEC (normal endothelial) cells; test: MTT cytotoxicity assay, HUVEC; format: cell-based; conditions: Homo sapiens, 48 h incubation, average (SD) of three experiments, read-out: IC50 HUVEC
Experimental: as §1, §2

[5] = test system: MOLT-4 (Human T-Lymphoid Cell Line); test: MTT cytotoxicity assay, MOLT-4; format: cell-based; conditions: MOLT-4, 48 h incubation, average (SD) of three experiments, read-out: IC50 MOLT-4
Experimental: as §1, §2

[6] = test system: K562 (myelogenous leukemia cell line); test: MTT cytotoxicity assay, K562; format: cell-based, human; conditions: 48 h incubation, average (SD) of three experiments, read-out: IC50 K562
Experimental: as §1, §2

[7] = MTT cytotoxicity assay, cancer cell lines taken together (HeLa, K562, MOLT-4); format: cell-based; conditions: human, K562 and MOLT-4 cancer cells
Experimental: The cytotoxicity of new derivatives of dicarboximides was tested in HeLa (cervix carcinoma cell line), K562 (myelogenous leukemia cell line), MOLT-4 (Human T-Lymphoid Cell Line), and HUVEC (normal endothelial) cells. First, the viability of cells was determined after 48 h incubation with the screened compounds used at the concentration of 100 μM (data not shown). For compounds that reduced the viability of cancer cells by more than 50%, the IC50 values were determined (Table 2). Cells exposed to 1% DMSO (as vehicle) served as the control with 100% survival.
Human umbilical vein endothelial cells (Life Technologies, Carlsbad, CA, USA) were cultured (according to the manufacturer’s instructions) in Medium 200 containing low serum growth supplement; 1 × 10^4 cells were seeded on each well on a 96-well plate (Nunc, Roskilde, Denmark). […] The cytotoxicity of all compounds was determined by the MTT [3-(4,5-dimethylthiazol-2-yl)-2,5-diphenyltetrazolium bromide; Sigma, St. Louis, MO, USA] assay. […] MTT-formazan crystals were dissolved in 20% SDS and 50% DMF at pH 4.7, and absorbance was read at 570 and 650 nm on a microplate reader FLUOstar Omega (BMG Labtech, Offenburg, Germany). […]

With `CCC12C(=O)C(CC)(C(c3ccccc3)=C1c1ccccc1)C1C(=O)N(CC(O)CN3CCCCC3)C(=O)C12` (stereo not shown) [2f, 4-[2-hydroxy-3-(piperidin-1-yl)propyl]-1,7-diethyl-8,9-diphenyl-4-azatricyclo[5.2.1.0^2,6]dec-8-ene-3,5,10-trione] the “protection of plasmid DNA from BamHI digestion (circular DNA left)” value (“protection of plasmid DNA” for short) [1] was “the circular form was also detected”, the “activity of caspase 3/7” value [2] was “over eight-fold increase in caspase activity; also recorded: activated caspase 3 and 7” and the IC50 [3] was 5.1 µM. The IC50 [4] was 3.1 µM, the IC50 [5] was 3.4 µM and the IC50 [6] was 3.9 µM. The IC50 ([6]; Homo sapiens, K562, 48 h) was under 6 µM.

For `O=C1C2C(C(=O)N1CC(O)CN1CCCCC1)C1(c3ccccc3)CC2(c2ccccc2)C(c2ccccc2)=C1c1ccccc1` (stereo not shown) [3f, 4-[2-hydroxy-3-(piperidin-1-yl)propyl]-1,7,8,9-tetraphenyl-4-azatricyclo[5.2.1.0^2,6]dec-8-ene-3,5-dione], the “protection of plasmid DNA” value [1] was “interaction seems to be stronger”, the “activity of caspase 3/7” value [2] was “activated caspase 3/7 to a lesser extent; also recorded: activated caspase 3 and 7” and the IC50 [3] was 3 µM. The IC50 [4] was 0.4 µM, the IC50 [5] was 3 µM and the IC50 [6] was 3 µM. The IC50 ([6]; Homo sapiens, K562, 48 h) was under 6 µM.

`O=C1C2C(C(=O)N1CCO)C1(c3ccccc3)CC2(c2ccccc2)C(c2ccccc2)=C1c1ccccc1` (stereo not shown) [compound 5, 4-(2-hydroxyethyl)-1,7,8,9-tetraphenyl-4-azatricyclo[5.2.1.02,6]dec-8-ene-3,5-dione] gave an IC50 [3] of 8 µM, an IC50 [4] of 0.7 µM and an IC50 [5] of 2.1 µM. It also gave a melting point of 197 to 198 °C and an IC50 ([6]; Homo sapiens, K562, 48 h) of 6.2 µM.

With `COc1cccc2c1C(=O)c1c(O)c3c(c(O)c1C2=O)C[C@@](O)(C(C)=O)C[C@@H]3O[C@H]1C[C@H](N)[C@H](O)[C@H](C)O1` [daunorubicin, reference compound] the “protection of plasmid DNA” value [1] was “prevented linearization of DNA”.

For `CN[C@@H]1C[C@H]2O[C@@](C)([C@@H]1OC)n1c3ccccc3c3c4c(c5c6ccccc6n2c5c31)C(=O)NC4` [staurosporine, reference compound], the “activity of caspase 3/7” value [2] was “strongly activated caspase 3/7” and the viability at 48 h, 1 µM [7] was 44 to 49%.
